These are literature values, as cited in US10894072B2, “Compositions and methods for treating fibromyalgia” (Quality IP Holdings, LLC, priority 2017, dated 2021).

For one series, the system named is hGH. The settings on record: for Increase in hGH: other amino acids.
The next series has as its system IGF-1 and IGF-BP3. The settings on record: patients with fibromyalgia, 4 days treatment.
The subject of series [1] is fibromyalgia.
In series [2] the test system is fibromyalgia. The source holds these as a separate data set.
For series [3] the following is noted: hGH-deficient adults, within months of treatment.
The conditions of series [4]: subcutaneous injection of 0.06 IU, hGH deficient subjects.
Series [5] has as its system fibromyalgia. The source holds these as a separate data set.

As to `N=C(N)NCCC[C@H](N)C(=O)O` [arginine], the “Elevation of serum hGH levels” value with hGH (30 g, males) was 8.6 fold. Further, the “Increase of hGH levels” value in the series on hGH (intravenous infusion of 183 mg/kg body weight, females) is reported as more than 20 fold.
As for `N[C@@H](Cc1c[nH]cn1)C(=O)O` [histidine], in the series on hGH, the “Increase in hGH” value was “marked increases”.
Turning to `NCCCC[C@H](N)C(=O)O` [lysine], the “Increase in hGH” value in the series on hGH was “marked increases”.
As to `CSCC[C@H](N)C(=O)O` [methionine], the “Increase in hGH” value with hGH is recorded as “marked increases”.
For the compound `NCCC[C@H](N)C(=O)O` [ornithine], the “Increase in hGH” value with hGH is “marked increases”.
Consider `N[C@@H](Cc1ccccc1)C(=O)O` [phenylalanine], for which, in the series on hGH, the “Increase in hGH” value was “marked increases”.
Turning to “hGH: human growth hormone, given by injection in cited studies”, in the series on IGF-1 and IGF-BP3, the “Plasma IGF-1 and IGF-BP3 levels” value is given as “increase”. For the same compound, in the series with fibromyalgia [1] (at nine months), the “FIQ score and tender point score over the placebo group” value is “significant improvement”. In addition, the IGF-1 levels result with fibromyalgia [1] (daily hGH injections) was “prompt and sustained increase”. Moreover, in the series with fibromyalgia [2] (hGH added to standard treatment, sustained action over time), the Pain entry was “effective in reducing pain”. Moreover, the “FIQ scores compared with placebo group” value in the series with fibromyalgia [2] (low-dose hGH added to standard treatment) is on record as “significantly improved”. Besides, the “Lean body mass, skin thickness and muscle mass” value in series [3] is “gains”. In addition, the “Mean levels of hGH reached” value in series [4] is 0.4 ng/mL. In the series on fibromyalgia [5] (end of one-year study, subcutaneous hGH added to standard therapy), the “Reduction in the mean number of tender points (pairs) compared to the control group” value was 60%. The Tolerability result in the series with fibromyalgia [5] (human, in vivo) was “well tolerated”.
